The values that follow are results of earlier work, collected in patent US6972278B2, “Laundry detergent gel with suspended particles” (Unilever Home & Personal Care USA division of Conopco, Inc., priority 2004, dated 2005).

Where two headings read alike, the source gives them in different places.

The conditions of this data set: by fatty acid chain length.
Setting [1] is: cited from Langmuir, Vol 16, pp 172-177, 2000.

In the case of `CCCCCCCCCCCC(=O)O` [Example 12], the “Measured pKa value” under setting [1] is listed as approximately 7.5.

On to `CCCCCCCC(=O)O` [Example 8], for which the “Measured pKa value” under setting [1] is 6.3~6.5.

In the case of `CCCCCCCCCC(=O)O` [Example 10], the “Measured pKa value” under setting [1] is 7.1~7.3.

With `CCCCCCCCCCCCCC(=O)O` [Example 14], under setting [1], the “Measured pKa value” is recorded as 8.1~8.2.

On to `CCCCCCCCCCCCCCCC(=O)O` [Example 16], for which the “Measured pKa value” is given as 8.6~8.8 under setting [1] and 8.5 (cited from Proc. R. Soc. London, A133, 140, 1931).
